Laboratory results: patent publication US5942501A, “Cyclodextrin derivative complex” (priority 1996, dated 1999)

What was measured:
[1] = Solubility in water of salicylic acid, cyclodextrins and cyclodextrin inclusion complexes; type: physicochemical; settings: complexed with cyclodextrin
[2] = cited from earlier work

SMILES	solubility in complexed form (in words) [1]	solubility of salicylic acid in water ([2]; ambient temperatures, uncomplexed)	solubility of S.A. in water or mixed aqueous solvent (uncomplexed) ([2]; water or mixed aqueous solvent, starting value before complexation)
OCCOc1ccccc1 [phenoxyethanol]	more soluble in complexed form	–	–
O=C(O)c1ccccc1O [salicylic acid]	–	about 0.3%	about 0.3%
